Publication PMC9057582, “HIF inhibitor 32-134D eradicates murine hepatocellular carcinoma in combination with anti-PD1 therapy” (The Journal of Clinical Investigation, 2022)
Read-outs that look alike come from different tables or passages of the source. Blank lines part the entries; values can stand above or below the molecule they belong to. Where a SMILES comes first, the peptide text is derived from it. The star is where a group is joined. Cbz = O=C(OCc1ccccc1)*

Key:
[1] = test system: HIF-1α and HIF-2α protein; assay: Immunoblot of nuclear extracts of Hep3B cells; assay type: cell-based, human; conditions: 5 μM MG132 during last 8 hours, 5 μM 32-134D
Protocol: (§1) Figure 1 Identification of HIF inhibitors. (A) Hep3B-c1 cells were stably transfected with firefly luciferase (FLuc) reporter p2.1, which contains a hypoxia-response element (HRE), and Renilla luciferase (RLuc) reporter pSVR. (B) Hep3B-c1 cells were incubated with vehicle (Veh; 0.1% DMSO; blue bars) or 10 μM 32-134D (red bars) at 20% O2 (n = 6) or 1% O2 (n = 12) for 24 hours. Cell lysates were assayed for Fluc/Rluc activity (mean ± SEM); *P < 0.05 versus vehicle (χ^2 test). (C) Chemical structures and IC50 values for HIF inhibitors. (D and E) Hep3B cells were exposed to 20% O2 with vehicle, or 1% O2 with vehicle (blue bar), 32-134D (red bars), 33-063 (green bars), or PT2385 (brown bars) for 24 hours and CA9 (D) and EPO (E) mRNAs were quantified by RT-qPCR. […] (F) Hep3B cells were exposed to 20% or 1% O2 in the presence of vehicle or 1% O2 in the presence of 5 μM 32-134D (n = 3 each) for 24 hours. RNA sequencing identified genes with hypoxia-induced expression (blue circle) and genes that were inhibited by 32-134D (orange circle), based on FDR < 0.05 and fold change > 1.5. (G) Hep3B cells were exposed to 20% or 1% O2 for 24 hours in the presence of vehicle or 5 μM 32-134D, nuclear extracts were prepared, and immunoblot assays were performed. […]

[2] = test system: HIF transcriptional activity; assay: HIF-dependent luciferase reporter assay (FLuc/RLuc ratio) in Hep3B-c1 cells; assay type: cell-based; conditions: Homo sapiens, 1% O2, 24 hours, read-out: IC50, inhibition of HIF-dependent reporter gene expression
Source text: The NCI CellMiner database contains expression data for over 25,000 mRNAs in 60 human cancer cell lines that have been exposed to more than 20,000 chemical compounds ([49]). We searched CellMiner for a compound that induced changes in gene expression that were highly correlated with those induced by acriflavine, but which was structurally unrelated to acriflavine. Compounds that satisfied the above criteria were identified and subsequently analyzed in Hep3B-c1 cells ([50]), which are stably transfected with HIF-dependent reporter plasmid p2.1, in which firefly luciferase (FLuc) coding sequences are located downstream from a hypoxia-response element (HRE) and a basal SV40 promoter; and control reporter pSVR, in which Renilla luciferase (RLuc) coding sequences are downstream of the basal SV40 promoter only (Figure 1A). The FLuc/RLuc ratio in cells exposed to 1% O2 for 24 hours is a specific measure of HIF-dependent gene expression.
as §1, with “hours.” for “hours. RNA sequencing identified genes with hypoxia-induced expression (blue circle) and genes that were inhibited by 32-134D (orange circle), based on FDR < 0.05 and fold change > 1.5. (G) Hep3B cells were exposed to 20% or 1% O2 for 24 hours in the presence of vehicle or 5 μM 32-134D, nuclear extracts were prepared, and immunoblot assays were performed.”
Hep3B-c1 cells ([50]) were seeded on 24-well plates. […] FLuc/RLuc ratios were determined using the Dual Luciferase Reporter Assay System (Supplemental Table 6) and the VICTOR Nivo plate reader (PerkinElmer).

[3] = cited from earlier work
[4] = test system: HIF target genes in Hep3B cells; assay: RT-qPCR of endogenous HIF target gene expression in Hep3B cells; assay type: cell-based, human; conditions: Hep3B cells, 1% O2, 24 hours
Source text: Based on this hit, we synthesized analogs in which either halogen substitutions to the indole groups were altered or the central thiazole was replaced by imidazole, isoxazole, oxadiazole, oxazole, pyrazinone, pyridazine, pyrazine, pyrazole, pyridine, thiadiazole, triazine, or triazole. […] We focused on analyzing the effect of the bis-bromoindole thiazole 32-134D and the bis-indole thiadiazole 33-063 on endogenous HIF target gene expression in Hep3B cells. […] For comparison, we tested the effect of PT2385, which inhibited EPO, NDRG1, ANGPTL4, and VEGFA expression but had no effect on CA9, which is consistent with its HIF-2–selective mechanism of action ([44]). None of the compounds had any effect on RPL13A expression, which is neither induced by hypoxia nor regulated by HIFs (Supplemental Figure 2D).
Human Hep3B and mouse Hepa1-6 cells were purchased from ATCC and grown in high-glucose (4.5 mg/mL) Dulbecco’s modified Eagle’s medium supplemented with 10% (vol/vol) fetal bovine serum and 1% penicillin/streptomycin at 37°C in a 5% CO2/95% air incubator (Supplemental Table 6). Human cell line identity was authenticated by analysis of short tandem repeats, and all cell lines were maintained mycoplasma free, using PCR-based assays conducted at the Johns Hopkins University Genetic Resources Core Facility (JHU GRCF). Cells were subjected to hypoxia in a controlled atmosphere chamber (PLAS Labs) with ambient gas mixture containing 1% O2 and 5% CO2.
(§2) RNA was extracted using TRIzol Reagent. Quantitative real-time PCR was conducted using SYBR Green PCR Master Mix and reactions were run using a Bio-Rad thermal cycler. Primer sequences and reagent sources are listed in Supplemental Table 5. The mRNA expression of target genes was normalized to the expression of 18S rRNA and the fold change (FC) was calculated based on the threshold cycle (Ct) as FC = 2^–Δ(ΔCt), where ΔCt = Cttarget gene – Ct18S rRNA and Δ(ΔCt) = ΔCttreatment – ΔCtcontrol. For RNA-seq, total RNA was isolated and treated with DNase (Qiagen). The JHU GRCF High-Throughput Sequencing facility prepared libraries and performed RNA-seq. The RNA-seq data were processed and interpreted using Genialis Expressions software (https://www.genialis.com/expressions/). An automated data analysis pipeline run in the Genialis platform consisted of the following: Sequence quality checks were performed on raw and trimmed reads with FastQC. Bbduk was used to trim adapters and filter out poor quality reads. Trimmed reads were then mapped to the STAR index (ENSEMBL 100) reference genome using the STAR ([93]) aligner. Gene expression levels were quantified with featureCounts ([94]), and differential gene expression analyses were performed with DESeq2 ([95]). […] Differential expression was determined with an FDR of less than 0.05 and mRNA FC of greater than 1.5 to identify hypoxia-induced genes and genes inhibited by 32-134D. Data used in this study have been deposited in the NCBI Gene Expression Omnibus database (GEO GSE195997).
Supplemental Figure 2. Effect of 32-134D on gene expression in Hep3B cells. (A-D) Hep3B cells were exposed to 20% O2 in the presence of vehicle (first bar; no fill) or 1% O2 in the presence of: vehicle (blue bar) or the indicated concentration of 32-134D (bars with red fill) or 33-063 (bars with green fill), or PT2385 (bars with brown fill) for 24 hours and the indicated mRNAs were quantified by reverse transcription and quantitative real-time PCR (qPCR). Data are presented as mean + SEM (n = 3). *p < 0.05 vs white; **p < 0.01 vs blue (ANOVA with Bonferroni post-test). […]
(G-H) Analysis of HIF-1a (G) and HIF-2a (H) […]
mRNA expression in Hep3B cells exposed to vehicle or 32-134D at 20% or 1% O2 for 24

Hepa1-6 mouse HCC cells = assay: RT-qPCR of hypoxia-induced gene expression in Hepa1-6 cells; assay type: cell-based; conditions: Hepa1-6, 1% O2, 24 hours
Protocol: Next, we analyzed Hepa1-6, which is a mouse HCC cell line. […] CXCL1, IL-6, and IL-10 were not induced by hypoxia, whereas hypoxia-induced IL-22 expression was inhibited by 32-134D (P < 0.05; Figure 3C).
Figure 3 Effect of 32-134D treatment on hypoxia-induced gene expression in Hepa1-6 cells. (A–C) Cells were exposed to 20% O2 and vehicle (white bars), 1% O2 and vehicle (blue bars), or 1% O2 and 32-134D (red bars) for 24 hours and mRNAs were quantified by RT-qPCR and normalized to white (mean ± SEM, n = 4). *P < 0.05 versus white; ^#P < 0.05 versus blue (ANOVA with Bonferroni’s post hoc test).
as §2
Supplemental Figure 7. Effect of 32-134D on gene expression in Hepa1-6 cells. Cells were exposed to 20% O2 and vehicle (white bar) or 1% O2 and vehicle (blue bar), 2.5-10 […]
for 24 hours and mRNAs were quantified by RT-qPCR and normalized to white (mean + SEM, n = 4). *p < 0.05 vs white; #p < 0.05 vs blue (ANOVA with Bonferroni post-test).
(1 picture or pasted object on this page, not shown here)

[5] = test system: HIF-1, HIF-2 and p300 recruitment to HREs; assay: ChIP-qPCR of HRE occupancy in Hep3B cells; assay type: cell-based, human; conditions: 16 hours, 5 µM 32-134D or 10 µM PT2385
Protocol: Coadministration of the proteasome inhibitor MG-132 blocked the effect of 32-134D on HIF-1α protein levels (Figure 1H). […] Taken together, the results presented in Figure 1 and Supplemental Figures 1–3 indicate that 32-134D induces HIF-α subunit degradation, thereby inhibiting activation of HIF-1 and HIF-2 target gene transcription.
Cells were seeded overnight and then exposed to 20% or 1% O2 in the presence of compound or vehicle for 16 hours. Protein was cross-linked to DNA by addition of 37% formaldehyde to culture medium for 10 minutes at 37°C and quenched by addition of 0.1 M glycine. Cells were washed with and collected in 5 mL of cold PBS containing PIs. Cells were pelleted and resuspended in 200 μL of SDS lysis buffer (50 mM Tris-HCl [pH 8.1], 10 mM EDTA, 1% SDS) containing PIs and incubated on ice for 10 minutes. Lysates were sonicated to produce DNA fragments ranging from 200 to 900 bp and centrifuged for 10 minutes at 4°C. Supernatants were collected and diluted 10-fold with dilution buffer (16.7 mM Tris-HCl [pH 8.1], 167 mM NaCl, 1.2 mM EDTA, 0.01% SDS, 1.1% Triton X-100) with PIs, precleared with 20 μL of salmon sperm DNA/protein A agarose slurry, and a 20-μL aliquot was reserved as input control. Antibody (2 μg; see Supplemental Table 6) was added and samples were rotated overnight at 4°C. Immune complexes were precipitated with 50 μL of salmon sperm DNA/protein A agarose slurry. Pelleted beads were washed serially using low-salt wash buffer (20 mM Tris-HCl [pH 8.1], 150 mM NaCl, 2 mM EDTA, 0.1% SDS, 1% Triton X-100); high-salt wash buffer (20 mM Tris-HCl [pH 8.1], 500 mM NaCl, 2 mM EDTA, 0.1% SDS, 1% Triton X-100); LiCl wash buffer (10 mM Tris-HCl [pH 8.1], 0.25 M LiCl, 1% Nonidet P-40, 1% deoxycholate, 1 mM EDTA); and TE buffer (10 mM Tris-HCl [pH 8.1], 1 mM EDTA). Elution buffer (1% SDS, 0.1 M NaHCO3) was added and eluates were heated at 65°C overnight to reverse cross-linking. Eluates were treated with proteinase K for 1 hour at 45°C and DNA was purified by extraction in phenol/chloroform/isoamyl alcohol (25:24:1, v/v/v) and isopropanol precipitation. […]

[6] = von Hippel-Lindau syndrome patients

SMILES: CC(C)C[C@@H](C=O)NC(=O)[C@H](CC(C)C)NC(=O)[C@H](CC(C)C)NC(=O)OCc1ccccc1 [MG-132, reference compound] (Cbz-Leu-Leu-Leu-aldehyde)
effect of 32-134D on HIF-1α protein levels on coadministration [1]: blocked

IC50 [2]: 2900 nM
SMILES: Brc1ccc2c(-c3nc(-c4c[nH]c5ccc(Br)cc45)cs3)c[nH]c2c1 [Compound 11-88, reference compound]

SMILES: CS(=O)(=O)c1ccc(Oc2cc(F)cc(C#N)c2)c2c1[C@H](O)[C@H](F)[C@@H]2F [belzutifan/PT2977]
patients with decreased blood hemoglobin levels [3, 6]: 90% | patients with grade 3 anemia [3, 6]: 7%

IC50 [2]: 2200 nM
SMILES: c1ccc2c(-c3nsc(-c4c[nH]c5ccccc45)n3)c[nH]c2c1 [Compound 33-063]
hypoxia-induced ANGPTL4, VEGFA, NDRG1 and EPO mRNA expression [4]: significantly inhibited | hypoxia-induced CA9 mRNA expression (activated by HIF-1 only) [4]: significantly inhibited | RPL13A mRNA expression (Hepa1-6 mouse HCC cells): no effect | hypoxia-induced ANGPTL4, EPO, PGF, and VEGFA mRNA expression (Hepa1-6 mouse HCC cells; 2.5-10 µM): significant dose-dependent inhibition

SMILES: CS(=O)(=O)c1ccc(Oc2cc(F)cc(C#N)c2)c2c1[C@H](O)C(F)(F)C2 [PT2385, reference compound]
hypoxia-induced ANGPTL4, VEGFA, NDRG1 and EPO mRNA expression [4]: inhibited | hypoxia-induced CA9 mRNA expression (activated by HIF-1 only) [4]: no effect | hypoxia-induced recruitment of HIFs and p300 to EPO and ANGPTL4 HREs [5]: inhibited | ANGPTL4, PGF, and VEGFA mRNA expression, potency compared with 32-134D and 33-063 (Hepa1-6 mouse HCC cells; 5-10 µM): less potent inhibitor | patients with grade 3 anemia ([3]; phase I trial): 10%
